# According to patent US8883169B2, “Immunogen platform” (Chrontech Pharma AB, priority 2007, dated 2014):
# B1: rBetv1: recombinant Betv1 protein (major Birch allergen) in Freunds incomplete adjuvant (protein, UniProt P15494 2-160, looked up)
# Major pollen allergen Bet v …: GVFNYETETTSVIPAARLFKAFILDGDNLFPKVAPQAISSVENIEGNGGPGTIKKISFPEGFPFKYVKDRVDEVDHTNFKYNYSVIEGGPIGDTLEKISNEIKIVATPDGGSILKISNKYHTKGDHEVKAEQVKASKEMGETLLRAVESYLLAHSDAYN
# modifications: in Freund's incomplete adjuvant
# Columns and labels:
# [1] = tested on: NS3-specific IgG1 and IgG2a antibodies; assay: EIA of NS3-specific IgG subclasses (IgG1, IgG2a); format: in vivo, mice; conditions: 10 μg rNS3 with 0.1 or 1.0 mg ribavirin i.p. at weeks 0 and 4, bled at week six
# antibodies to rNS3 = assay: EIA of antibodies to rNS3 after immunization with rNS3 with or without ribavirin; format: in vivo, Balb/c mice
# Protocol: In a first set of experiments, groups of three to five Balb/c mice (BK Universal, Uppsala, Sweden) were immunized i.p or s.c. (e.g., at the base of the tail) with 10 μg or 100 μg of recombinant hepatitis C virus non-structural 3 (rNS3) protein. […] Mice were injected with a total volume of […] per injection.
# At two and four weeks following i.p. immunization, all mice were bled by retro-orbital sampling. Serum samples were collected and analyzed for the presence of antibodies to rNS3. To determine the antibody titer, an enzyme immunoassay (EIA) was performed. (See e.g., Hultgren et al., J Gen Virol. 79:2381-91 (1998) and Hultgren et al., Clin. Diagn. Lab. Immunol. 4:630-632 (1997)). The antibody levels were recorded as the highest serum dilution giving an optical density at 405 nm more than twice that of non-immunized mice.
# At four, six and eight weeks the mice were bled and serum was separated and frozen. After completion of the study, sera were tested for the levels of antibodies to recombinant NS3, as described above. Mean antibody levels to rNS3 were compared between the groups using Student's t-test (parametric analysis) or Mann-Whitney (non-parametric analysis) and the software package StatView 4.5 (Abacus Concepts, Berkeley, Calif.). […] The values given represent end point titres to recombinant rNS3.
# The levels of antibody to the antigen were then determined by EIA.
# A second set of experiments was also performed. […] The mice were bled at week six and rNS3-specific IgG levels were determined by EIA as described previously.
# [2] = tested on: CD4+ T cells of lymph nodes; assay: In vitro recall assay, CD4+ T cell proliferation by [3H]thymidine incorporation; format: cell-based, mice; conditions: 100 μg rNS3 mixed with 1 mg ribavirin s.c.; ten days post-immunization; 96 h of culture
# Protocol: This assay can be used with any ribavirin derivative or combinations of ribavirin derivatives to determine the extent that a particular vaccine formulation modulates a cellular immune response. […] The mice were sacrificed ten days post-immunization and their lymph nodes were harvested and drained. In vitro recall assays were then performed. (See e.g., Hultgren et al., J Gen Virol. 79:2381-91 (1998) and Hultgren et al., Clin. Diagn. Lab. Immunol. 4:630-632 (1997)). The amount of CD4^+ T cell proliferation was determined at 96 h of culture by the incorporation of [^3H]thymidine.
# antibodies to HBsAg = assay: EIA of antibody titer to HBsAg after Engerix vaccine with or without ribavirin; format: in vivo, mice; conditions: 1 mg ribavirin, i.p., booster on week four, bled on week six
# Text: (Engerix, SKB). […] A booster containing the same mixture was given on week four and all mice were bled on week six.
# [3] = tested on: NS3/4A-expressing EL-4 lymphoma cells; assay: In vivo inhibition of growth of NS3/4A-expressing EL-4 tumor cells; conditions: C57BL/6 mice immunized only once
# Protocol: To confirm that inhibition of tumor growth using the NS3/4A-expressing EL-4 cell line is fully dependent on an NS3/4A-specific immune response a control experiment was performed. […] Two weeks after the last immunization the mice were challenged with an s.c. injection of 10^6 native EL-4 or NS3/4A-expressing EL-4 cells (NS3/4A-EL-4). An NS3/4A-specific immune response was required for protection, since only the immunized mice were protected against growth of the NS3/4A-EL-4 cell line (FIG. 10A). Thus, this H-2^b-restricted model behaves similarly to the SP2/0 H-2^d restricted model.
# As set forth herein, the NS3/4A gene can be used as a vaccine. Although it had been determined that NS3/4A quickly primed in vivo functional CTLs, the effect of therapeutic immunization after the injection of tumor cells was analyzed next. Groups of ten C57BL/6 mice were challenged with 10^6 NS3/4A-EL-4 tumor cells. […]
# In vivo challenge of immunized mice with the NS3/4A-expressing SP2/0 myeloma or EL-4 lymphoma cell line was performed according to the method described by Encke et al., supra. […] The kinetics of the tumor growth was determined by measuring the tumor size through the skin at days six to 20. […]
# To test the therapeutic effect of the vaccines groups of mice were inoculated with the tumor cells as described above. […] The tumor growth was monitored from day 6 to day 20.
# [4] = tested on: NS3 and birch specific T cells; assay: ELISpot assay of γ-IFN-secreting CTLs and T helper cells (NS3 and birch specific); format: cell-based, C57/BL6 mice; conditions: immunized twice, 4 weeks apart; two weeks after the second injection
# Protocol: (§1) Groups of C57/BL6 mice were immunized twice with 50 μg of either plasmid containing a codon optimized NS3/4A gene, a NS3/4A-Betv1 fusion gene containing a protease cleavage site between NS3 and NS4A as well as a protease cleavage site between the NS4A and the birch antigen (SEQ ID NO: 1380), or a NS3/4A-Betv1 fusion gene containing a protease cleavage site between NS3 and NS4A, a protease cleavage site between the NS4A and the birch antigen as well as two additional protease cleavage sites within the birch antigen (SEQ ID NO: 1381) using an electroporation device. Another group of mice were immunized twice with recombinant Betv1 protein (rBetv1) in Freunds incomplete adjuvant. The two immunizations were 4 weeks apart. The mice were sacrificed two weeks after the second immunizations and the lymph nodes and spleens of each group were collected and analyzed.
# The presence of γ-IFN-secreting CTLs and T helper (Th) cells to antigens in splenocyte or lymph node cultures were evaluated using a commercially available ELISpot assay. […] The ability of NS3-specific and birch-specific Th and CTLs to produce γ-IFN recalled by a concanavalin-A (con-A) as a positive control, media alone as a negative control, native HBcAg, recombinant HBcAg (rHBcAg), various concentrations of NS3/4A CTL peptide, various concentrations of rNS3, and various concentrations of rBetv1 was analyzed via the ELISpot.
# IgE to Betv1 = assay: ELISA of IgE antibodies on recombinant birch protein; format: in vivo, C57/BL6 mice; conditions: immunized twice, bled two weeks after the second immunization
# Protocol: as §1, with “bled” for “sacrificed”, “immunizations.” for “immunizations and the lymph nodes and spleens of each group were collected and analyzed.”
# Dilutions of the sera were tested on ELISA plates coated with recombinant birch protein. A secondary antibody specific for IgE antibodies was used to detect bound antibody. […] The DNA constructs are thus not allergenic in that they prime a Th1 type response.
molecule,measurement,setting,value
"NC(=O)c1ncn([C@@H]2O[C@H](CO)[C@@H](O)[C@H]2O)n1 [ribavirin, 1-β-D-ribofuranosyl-1,2,4-triazole-3-carboxamide]",effect on the IgG subclass response in the NS3-specific immune response,[1],does not change the IgG subclass response
same,"effect on antibody levels, higher doses (1-10 mg) of ribavirin","antibodies to rNS3; 20 μg rNS3, weeks 1 and 3",enhance antibody levels at week three
same,"effect on antibody levels, low doses (<1 mg) of ribavirin","antibodies to rNS3; 20 μg rNS3, weeks 1 and 3",enhance antibody levels at week one but not at week three
same,antibody titer compared to formulations composed of only rNS3,"antibodies to rNS3; 1 mg of ribavirin and either 10 μg or 100 μg of rNS3, two weeks post-immunization",significantly greater antibody titer
same,immune response compared to that elicited without ribavirin,antibodies to rNS3; approximately 1 to 3 mg doses of ribavirin,more than 12 times
same,T cell proliferative response compared to 100 μg rNS3 in PBS,[2],much greater T cell proliferative response
same,response to Engerix vaccine (HBsAg and alum),antibodies to HBsAg,enhanced the response to 2 μg of an existing vaccine
"GAVQNEVTL (Artificial Peptide, NS3/4A H-2D Binding Peptide) [NS3-derived CTL peptide]",protection against growth of NS3/4A-EL-4 tumors after a single immunization,[3],not protected
B1,priming of IFN-γ producing Betv1-specific T cells,[4],fails to do
same,priming of IgE to Betv1,IgE to Betv1,shows birch-specific IgE antibodies
